Assay results from patent US20090247559A1 (Exelixis, Inc., priority 2007, published 2009).

Biological target: PIM (PIM-1, PIM-2, and/or PIM-3)
Assay: PIM-1, PIM-2 and PIM-3 inhibition, biochemical chemiluminescence assays (Kinase Glo, IC50 determination)
Settings: Table 1 activity class; PIM refers to PIM-1, PIM-2, and/or PIM-3; read-out: PIM IC50 (Activity B)
Protocol: (§1) The IC50 evaluation of compounds against the PIM-1 oncogene was performed in a Chemiluminesence assay utilizing a Greiner 384-well white medium binding white plate format. […] Following an incubation period of 120 minutes at ambient temperature (24-27° C.), 10 μL of Kinase Glo (Promega) was added. The luminescence was measured following a Luminescence Protocol on a Victor plate reader.
as §1, with “PIM-2” for “PIM-1”, “format. […] The assay procedure involves compound dilution followed by addition of 3 nM PIM-2 to the designated well plates and subsequent pre-incubation of the compounds with the enzyme for 30 minutes at ambient temperature (24-27° C.).” for “format.”
as §1, with “PIM-3 Oncogene” for “PIM-1 oncogene”

**Q.** How did the IC50 turn out when `C[C@@H]1CN(Cc2nc3c(oc4ccc(Br)cc43)c(=O)[nH]2)C[C@H](C)N1C` [Compound 316, 8-bromo-2-{[(3R,5S)-3,4,5-trimethylpiperazin-1-yl]methyl}[1]benzofuro[3,2-d]pyrimidin-4(3H)-one] was run?
**A.** < 10 µM

**Q.** Which IC50 does the source give for `CN1CCC(N2CCN(Cc3nc4c(oc5ccc(Br)cc54)c(=O)[nH]3)CC2)CC1` [Compound 84, 8-bromo-2-{[4-(1-methylpiperidin-4-yl)piperazin-1-yl]methyl}[1]benzofuro[3,2-d]pyrimidin-4(3H)-one] here?
**A.** < 10 µM

**Q.** For `CN1CCN(c2ccccc2CNCc2nc3c(oc4ccc(Br)cc43)c(=O)[nH]2)CC1` [Compound 74, 8-bromo-2-[({[2-(4-methylpiperazin-1-yl)phenyl]methyl}amino)methyl][1]benzofuro[3,2-d]pyrimidin-4(3H)-one], which IC50 is on record?
**A.** < 10 µM

**Q.** How did the IC50 turn out when `CC(C)COc1cnccc1-c1nc2c(oc3ccc(Br)cc32)c(=O)[nH]1` [Compound 219, 8-bromo-2-{3-[(2-methylpropyl)oxy]pyridin-4-yl}[1]benzofuro[3,2-d]pyrimidin-4(3H)-one] was run?
**A.** < 10 µM

**Q.** Which IC50 does the source give for `CN1CCN(Cc2nc3c(nc4ccc(Br)cn43)c(=O)[nH]2)CC1` [Compound 417, 8-bromo-2-[(4-methylpiperazin-1-yl)methyl]pyrido[1,2-e]purin-4(3H)-one] here?
**A.** < 10 µM

**Q.** `CN(C)CCCNC(=O)[C@@H]1CCCN1Cc1nc2c(oc3ccc(Br)cc32)c(=O)[nH]1` [Compound 20, 1-[(8-bromo-4-oxo-3,4-dihydro[1]benzofuro[3,2-d]pyrimidin-2-yl)methyl]-N-[3-(dimethylamino)propyl]prolinamide] was tested. Which IC50 did it give?
**A.** < 10 µM

**Q.** For `NC1C[C@H]2CC[C@@H](C1)N2Cc1nc2c(oc3ccc(Br)cc32)c(=O)[nH]1` (stereo partly drawn) [Compound 131, 2-{[(1R,5S)-3-Amino-8-azabicyclo[3.2.1]oct-8-yl]methyl}-8-bromo[1]benzofuro[3,2-d]pyrimidin-4(3H)-one], which IC50 is on record?
**A.** < 10 µM

**Q.** How did the IC50 turn out when `CN1CCN(Cc2nc3c(oc4ccc(C#CCO)cc43)c(=O)[nH]2)CC1` [Compound 450, 8-(3-hydroxyprop-1-yn-1-yl)-2-[(4-methylpiperazin-1-yl)methyl][1]benzofuro[3,2-d]pyrimidin-4(3H)-one] was run?
**A.** < 10 µM

**Q.** `CNC(=O)c1ccc2oc3c(=O)[nH]c(-c4ccccc4Cl)nc3c2c1` [Compound 97, 2-(2-chlorophenyl)-N-methyl-4-oxo-3,4-dihydrobenzofuro[3,2-d]pyrimidine-8-carboxamide] was tested. Which IC50 did it give?
**A.** < 10 µM

**Q.** With `Cc1cc(NCC2CCOC2)ccc1-c1nc2c(oc3ccc(Br)cc32)c(=O)[nH]1` (centres unmarked) [Compound 61, 8-bromo-2-{2-methyl-4-[(tetrahydrofuran-3-ylmethyl)amino]phenyl}[1]benzofuro[3,2-d]pyrimidin-4(3H)-one] as the compound, how does the IC50 read?
**A.** < 10 µM

**Q.** Which IC50 does the source give for `O=c1[nH]c(CN2CCN(c3cccc(Cl)c3)CC2)nc2c1oc1ccc(Br)cc12` [Compound 278, 8-bromo-2-{[4-(3-chlorophenyl)piperazin-1-yl]methyl}[1]benzofuro[3,2-d]pyrimidin-4(3H)-one] here?
**A.** < 10 µM

**Q.** How did the IC50 turn out when `O=c1[nH]c(CN2CCC(N3CCCCC3)CC2)nc2c1oc1ccc(Br)cc12` [Compound 202, 2-(1,4′-bipiperidin-1′-ylmethyl)-8-bromo[1]benzofuro[3,2-d]pyrimidin-4(3H)-one] was run?
**A.** < 10 µM

**Q.** `O=c1[nH]c(-c2ccc3nc[nH]c3c2)nc2c1oc1ccc(Br)cc12` [Compound 423, 2-(1H-benzimidazol-6-yl)-8-bromo[1]benzofuro[3,2-d]pyrimidin-4(3H)-one] was tested. Which IC50 did it give?
**A.** < 10 µM

**Q.** For `O=c1[nH]c(CN2CC[C@H](O)C2)nc2c1oc1ccc(NC3CCCCC3)cc12` [Compound 449, 8-(cyclohexylamino)-2-{[(3S)-3-hydroxypyrrolidin-1-yl]methyl}[1]benzofuro[3,2-d]pyrimidin-4(3H)-one], which IC50 is on record?
**A.** < 10 µM

**Q.** With `O=c1[nH]c(CNC2CCNCC2)nc2c1oc1ccc(Br)cc12` [Compound 8, 8-bromo-2-[(piperidin-4-ylamino)methyl][1]benzofuro[3,2-d]pyrimidin-4(3H)-one] as the compound, how does the IC50 read?
**A.** < 10 µM

**Q.** How did the IC50 turn out when `CN(C)c1cccc(NCc2nc3c(oc4ccc(Br)cc43)c(=O)[nH]2)c1` [Compound 76, 8-bromo-2-({[3-(dimethylamino)phenyl]amino}methyl)[1]benzofuro[3,2-d]pyrimidin-4(3H)-one] was run?
**A.** < 10 µM

**Q.** How did the IC50 turn out when `O=c1[nH]c(-c2ccc(Cl)cc2)nc2c1oc1ccc(Br)cc12` [Compound 94, 8-Bromo-2-(4-chlorophenyl)[1]benzofuro[3,2-d]pyrimidin-4(3H)-one] was run?
**A.** < 10 µM

**Q.** Which IC50 does the source give for `CN1CCN(Cc2nc3c(oc4ccc(F)cc43)c(=O)[nH]2)CC1` [Compound 367, 8-Fluoro-2-[(4-methylpiperazin-1-yl)methyl][1]benzofuro[3,2-d]pyrimidin-4(3H)-one] here?
**A.** < 10 µM

**Q.** How did the IC50 turn out when `CCN(CC)CC(=O)N1CCN(Cc2nc3c(oc4ccc(Br)cc43)c(=O)[nH]2)CC1` [Compound 26, 8-bromo-2-{[4-(N,N-diethylglycyl)piperazin-1-yl]methyl}[1]benzofuro[3,2-d]pyrimidin-4(3H)-one] was run?
**A.** < 10 µM

**Q.** For `O=C(COc1cccc(-c2nc3c(oc4ccc(Br)cc43)c(=O)[nH]2)c1)NCC1CC1` [Compound 98, 2-{[3-(8-bromo-4-oxo-3,4-dihydro[1]benzofuro[3,2-d]pyrimidin-2-yl)phenyl]oxy}-N-(cyclopropylmethyl)acetamide], which IC50 is on record?
**A.** < 10 µM

**Q.** For `O=C(Nc1ccc(Cl)c(-c2nc3c(oc4ccc(Br)cc43)c(=O)[nH]2)c1)c1ccc(Br)cn1` [Compound 338, 5-bromo-N-[3-(8-bromo-4-oxo-3,4-dihydro[1]benzofuro[3,2-d]pyrimidin-2-yl)-4-chlorophenyl]pyridine-2-carboxamide], which IC50 is on record?
**A.** < 10 µM

**Q.** `Nc1ccc(-c2nc3c(oc4ccccc43)c(=O)[nH]2)c(Cl)c1` [Compound 399, 2-(4-amino-2-chlorophenyl)[1]benzofuro[3,2-d]pyrimidin-4(3H)-one] was tested. Which IC50 did it give?
**A.** < 10 µM

**Q.** How did the IC50 turn out when `COC(=O)c1ccc(-c2nc3c(oc4ccccc43)c(=O)[nH]2)cc1` [Compound 53, methyl 4-(4-oxo-3,4-dihydro[1]benzofuro[3,2-d]pyrimidin-2-yl)benzoate] was run?
**A.** < 10 µM

**Q.** With `C[C@@H]1CN(Cc2nc3c(oc4ccc(Br)cc43)c(=O)[nH]2)C[C@H](C)N1` [Compound 296, 8-bromo-2-{[(3R,5S)-3,5-dimethylpiperazin-1-yl]methyl}[1]benzofuro[3,2-d]pyrimidin-4(3H)-one] as the compound, how does the IC50 read?
**A.** < 10 µM

**Q.** With `O=c1[nH]c(C(c2ccccc2)N2CCNCC2)nc2c1oc1ccc(Br)cc12` (centres unmarked) [Compound 384, 8-bromo-2-[phenyl(piperazin-1-yl)methyl][1]benzofuro[3,2-d]pyrimidin-4(3H)-one] as the compound, how does the IC50 read?
**A.** < 10 µM

**Q.** `CN1CCN(C(c2nc3c(oc4ccc(Br)cc43)c(=O)[nH]2)c2ccccc2Cl)CC1` (centres unmarked) [Compound 156, 8-Bromo-2-[(2-chlorophenyl)(4-methylpiperazin-1-yl)methyl][1]benzofuro[3,2-d]pyrimidin-4(3H)-one] was tested. Which IC50 did it give?
**A.** < 10 µM

**Q.** How did the IC50 turn out when `O=c1[nH]c(-c2cn3c(n2)CNCC3)nc2c1oc1ccc(Br)cc12` [Compound 301, 8-Bromo-2-(5,6,7,8-tetrahydroimidazo[1,2-a]pyrazin-2-yl)[1]benzofuro[3,2-d]pyrimidin-4(3H)-one] was run?
**A.** < 10 µM

**Q.** `CN1CCN(c2ccc(CNc3nc4c(oc5ccc(Br)cc54)c(=O)[nH]3)cc2)CC1` [Compound 225, 8-bromo-2-({[4-(4-methylpiperazin-1-yl)phenyl]methyl}amino)[1]benzofuro[3,2-d]pyrimidin-4(3H)-one] was tested. Which IC50 did it give?
**A.** < 10 µM

**Q.** For `CN(C)CCN1CCN(Cc2nc3c(oc4ccc(Br)cc43)c(=O)[nH]2)CC1` [Compound 81, 8-bromo-2-({4-[2-(dimethylamino)ethyl]piperazin-1-yl}methyl)[1]benzofuro[3,2-d]pyrimidin-4(3H)-one], which IC50 is on record?
**A.** < 10 µM

**Q.** With `CN1CCN(C(=O)c2nc3c(oc4ccc(Br)cc43)c(=O)[nH]2)CC1` [Compound 106, 8-Bromo-2-[(4-methylpiperazin-1-yl)carbonyl][1]benzofuro[3,2-d]pyrimidin-4(3H)-one] as the compound, how does the IC50 read?
**A.** < 10 µM

**Q.** Which IC50 does the source give for `O=C(Nc1ccc(Cl)c(-c2nc3c(oc4ccc(Br)cc43)c(=O)[nH]2)c1)c1cccnc1` [Compound 327, N-[3-(8-bromo-4-oxo-3,4-dihydro[1]benzofuro[3,2-d]pyrimidin-2-yl)-4-chlorophenyl]pyridine-3-carboxamide] here?
**A.** < 10 µM

**Q.** With `O=c1[nH]c(-c2ccc(Br)cc2)nc2c1oc1ccc(Br)cc12` [Compound 95, 8-Bromo-2-(4-bromophenyl)[1]benzofuro[3,2-d]pyrimidin-4(3H)-one] as the compound, how does the IC50 read?
**A.** < 10 µM

**Q.** With `O=C(Nc1ccc(Cl)c(-c2nc3c(oc4ccc(Br)cc43)c(=O)[nH]2)c1)C1CCNCC1` [Compound 392, ′N-[3-(8-bromo-4-oxo-3,4-dihydro[1]benzofuro[3,2-d]pyrimidin-2-yl)-4-chlorophenyl]piperidine-4-carboxamide] as the compound, how does the IC50 read?
**A.** < 10 µM

**Q.** With `CN1CCN(C(c2ccccc2)c2nc3c(oc4ccc(Br)cc43)c(=O)[nH]2)CC1` (centres unmarked) [Compound 188, 8-bromo-2-[(4-methylpiperazin-1-yl)(phenyl)methyl][1]benzofuro[3,2-d]pyrimidin-4(3H)-one] as the compound, how does the IC50 read?
**A.** < 10 µM

**Q.** `O=c1[nH]c(CN2CC[C@H](O)C2)nc2c1nc1ccc(Br)cn12` [Compound 418, 8-bromo-2-{[(3S)-3-hydroxypyrrolidin-1-yl]methyl}pyrido[1,2-e]purin-4(3H)-one] was tested. Which IC50 did it give?
**A.** < 10 µM
